In patent US10583137B2, “Triazole DAGLα inhibitors” (THE SCRIPPS RESEARCH INSTITUTE, priority 2015, dated 2020):

Tests used:
[1] = biological target: DAGLβ (hDAGLβ-FLAG) (Homo sapiens (Human), UniProt Q8NCG7); test: competitive ABPP, membrane proteome of transfected HEK293T cells; type: biochemical; details: for IC50: read-out: DAGLβ IC50; for inhibition at 0.4 µM: read-out: DAGLβ % inh. 0.4 μM; for inhibition at 0.0032 µM: read-out: DAGLβ % inh. 3.2 nM
Description: (§1) Compounds 19 and 20 were tested for in vitro inhibition of DAGLα and DAGLβ as measured by competitive activity-based protein profiling (ABPP) of […] using a HT-01 probe (targets DAGLα and DAGLβ) and a FP-Rh probe (targets serine hydrolases).
(§2) Briefly, membrane proteome (1 mg/ml, 20 μL) was prepared from HEK293T cells (transiently transfected with hDAGLα-FLAG or hDAGLα-S472A-FLAG, hDAGLβ-FLAG or hDAGLβ-S443A-FLAG) as described in Example 16. The proteome was incubated at room temperature with vehicle (DMSO) or compound in 0.5 μL DMSO for 30 min. The membrane proteome sample was subsequently treated for 30 min with HT-01 probe (1 μM) or FP-Rh probe (1 μM). The reactions were quenched with 10 μL 3× Laemmli sample buffer (final concentrations: 60 mM Tris-Cl pH 6.8, 2% (w/v) SDS, 10% (v/v) glycerol, 5% (v/v) (3-mercaptoethanol, 0.01% (v/v) bromophenol blue). The samples were directly loaded and resolved on SDS page gel (10% acrylamide). The gels were scanned using a ChemiDoc MP system (Cy3 settings, 605/50 filter).
(§3) The resolved proteins were transferred from the gels to a polyvinyldifluoride membrane for Western Blotting using a Trans-Blot® Turbo (BioRad). FLAG-tagged enzymes were stained using rabbit anti-FLAG as primary antibody, and goat-anti-rabbit HRP as secondary antibody. The blot was developed in the dark using a 10 mL luminal solution, 100 μL ECL enhancer and 3 μL H2O2. Chemiluminescence was visualized using a ChemiDoc XRS (BioRad).
(§4) The percentage of DAGL activity remaining in the assayed samples was determined by measuring the integrated optical intensity of the fluorescent protein bands of the Western Blot using image lab 4.1. The relative intensity was compared to the vehicle (DMSO) treated proteins, which were set to 100%. IC50 values were determined by plotting a log(inhibitor) vs. normalized response (Variable slope) dose-response curve generated using Prism software (GraphPad).

[2] = biological target: DAGLα (hDAGLα-FLAG) (Homo sapiens (Human), UniProt Q9Y4D2); test: as above; type: biochemical; details: for IC50: read-out: DAGLα IC50; for inhibition at 0.4 µM: read-out: DAGLα % inh. 0.4 μM; for inhibition at 0.0032 µM: 3.2 nM, read-out: DAGLα % inh. 3.2 nM
DAGLα (hDAGLα-FLAG), sequence (Q9Y4D2 whole entry): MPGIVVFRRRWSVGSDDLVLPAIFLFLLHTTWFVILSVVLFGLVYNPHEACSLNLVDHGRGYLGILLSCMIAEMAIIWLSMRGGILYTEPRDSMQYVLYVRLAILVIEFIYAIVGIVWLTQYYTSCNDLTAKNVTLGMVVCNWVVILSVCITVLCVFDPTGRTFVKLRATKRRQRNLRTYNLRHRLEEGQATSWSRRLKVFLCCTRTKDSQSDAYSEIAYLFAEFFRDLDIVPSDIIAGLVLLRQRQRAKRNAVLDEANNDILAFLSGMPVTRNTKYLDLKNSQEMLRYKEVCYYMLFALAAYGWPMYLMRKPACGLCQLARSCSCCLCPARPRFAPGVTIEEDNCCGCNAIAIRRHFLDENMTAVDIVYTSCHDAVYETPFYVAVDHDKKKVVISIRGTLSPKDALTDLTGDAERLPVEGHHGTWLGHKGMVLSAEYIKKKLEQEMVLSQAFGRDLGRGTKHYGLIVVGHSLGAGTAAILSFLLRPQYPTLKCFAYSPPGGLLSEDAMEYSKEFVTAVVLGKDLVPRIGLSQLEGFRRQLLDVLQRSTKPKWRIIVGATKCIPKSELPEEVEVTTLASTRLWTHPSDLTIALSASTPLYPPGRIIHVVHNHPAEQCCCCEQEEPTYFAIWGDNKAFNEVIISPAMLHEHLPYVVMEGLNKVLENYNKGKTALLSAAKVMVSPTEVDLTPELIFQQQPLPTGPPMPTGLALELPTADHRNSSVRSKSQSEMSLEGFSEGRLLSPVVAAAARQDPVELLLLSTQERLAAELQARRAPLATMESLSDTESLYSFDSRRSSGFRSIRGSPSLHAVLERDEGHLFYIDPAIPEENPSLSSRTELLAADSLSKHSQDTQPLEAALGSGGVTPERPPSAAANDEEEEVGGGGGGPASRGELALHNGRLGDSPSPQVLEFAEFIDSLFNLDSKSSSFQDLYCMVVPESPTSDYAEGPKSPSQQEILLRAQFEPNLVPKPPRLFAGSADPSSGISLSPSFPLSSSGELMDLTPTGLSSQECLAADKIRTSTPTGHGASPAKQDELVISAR
Description: as §1, §2, §3, §4

DAGLβ (hDAGLβ-FLAG), sequence (Q8NCG7 whole entry): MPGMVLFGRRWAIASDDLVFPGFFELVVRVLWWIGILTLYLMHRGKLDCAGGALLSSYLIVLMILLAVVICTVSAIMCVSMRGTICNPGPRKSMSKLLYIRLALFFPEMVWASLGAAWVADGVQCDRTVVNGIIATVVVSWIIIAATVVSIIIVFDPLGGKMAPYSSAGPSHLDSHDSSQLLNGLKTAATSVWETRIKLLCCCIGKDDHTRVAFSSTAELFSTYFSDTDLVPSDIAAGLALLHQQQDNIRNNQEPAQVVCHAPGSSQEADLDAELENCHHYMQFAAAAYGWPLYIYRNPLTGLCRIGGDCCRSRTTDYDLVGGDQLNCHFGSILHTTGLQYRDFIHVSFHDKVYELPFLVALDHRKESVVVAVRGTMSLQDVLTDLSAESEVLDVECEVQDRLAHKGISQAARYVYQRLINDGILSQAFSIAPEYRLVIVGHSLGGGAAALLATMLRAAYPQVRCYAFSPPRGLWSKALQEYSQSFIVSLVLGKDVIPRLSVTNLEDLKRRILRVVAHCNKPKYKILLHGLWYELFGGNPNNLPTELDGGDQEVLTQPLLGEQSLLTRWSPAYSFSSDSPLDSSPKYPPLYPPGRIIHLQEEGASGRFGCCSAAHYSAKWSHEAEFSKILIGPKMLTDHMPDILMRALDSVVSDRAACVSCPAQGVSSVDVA

Work on `COc1cc(C(N)=O)cc(OC)c1-c1ccc(-c2cn(C(=O)N3CCCCC3Cc3ccccc3)nn2)cc1` (stereo not drawn) [Compound 78, 4′-(1-(2-benzylpiperidine-1-carbonyl)-1H-1,2,3-triazol-4-yl)-2,6-dimethoxy-[1,1′-biphenyl]-4-carboxamide] yielded an IC50 [1] of over 10000 nM and an IC50 [2] of 400 to 2000 nM.

In the case of `CNC(=O)c1cc(OC)c(-c2ccc(-c3cn(C(=O)N4CCCCC4Cc4ccccc4)nn3)cc2)c(OC)c1` (stereo not drawn) [Compound 79, 4′-(1-(2-benzylpiperidine-1-carbonyl)-1H-1,2,3-triazol-4-yl)-2,6-dimethoxy-N-methyl-[1,1′-biphenyl]-4-carboxamide], the IC50 [1] is reported as over 10000 nM and the IC50 [2] is reported as 400 to 2000 nM.

With `COc1cc(C(=O)N(C)C)cc(OC)c1-c1ccc(-c2cn(C(=O)N3CCCCC3Cc3ccccc3)nn2)cc1` (stereo not drawn) [Compound 80, 4′-(1-(2-benzylpiperidine-1-carbonyl)-1H-1,2,3-triazol-4-yl)-2,6-dimethoxy-N,N-dimethyl-[1,1′-biphenyl]-4-carboxamide] the IC50 [1] was over 10000 nM and the IC50 [2] was 400 to 2000 nM.

`COc1cc(C(=O)N2CCCC2)cc(OC)c1-c1ccc(-c2cn(C(=O)N3CCCCC3Cc3ccccc3)nn2)cc1` (stereo not drawn) [Compound 81, (2-benzylpiperidin-1-yl)(4-(2′,6′-dimethoxy-4′-(pyrrolidine-1-carbonyl)-[1,1′-biphenyl]-4-yl)-1H-1,2,3-triazol-1-yl)methanone] gave an IC50 [1] of over 10000 nM and an IC50 [2] of 400 to 2000 nM.

With `COc1ncnc(OC)c1-c1ccc(-c2cn(C(=O)N3CCCCC3Cc3ccccc3)nn2)cc1` (stereo not drawn) [Compound 82, (2-benzylpiperidin-1-yl)(4-(4-(4,6-dimethoxypyrimidin-5-yl)phenyl)-1H-1,2,3-triazol-1-yl)methanone] the IC50 [1] was at most 400 nM and the IC50 [2] was at most 400 nM.

For `COc1cnnc(OC)c1-c1ccc(-c2cn(C(=O)N3CCCCC3Cc3ccccc3)nn2)cc1` (stereo not drawn) [Compound 83, (2-benzylpiperidin-1-yl)(4-(4-(3,5-dimethoxypyridazin-4-yl)phenyl)-1H-1,2,3-triazol-1-yl)methanone], the IC50 [1] was 2000 to 10000 nM and the IC50 [2] was at most 400 nM.

`COc1cc(OC)c(-c2cn(C(=O)N3CCCCC3Cc3ccccc3)nn2)c(OC)c1` (stereo not drawn) [Compound 84, (2-benzylpiperidin-1-yl)(4-(2,4,6-trimethoxyphenyl)-1H-1,2,3-triazol-1-yl)methanone] was tested, and the IC50 [1] was 2000 to 10000 nM and the IC50 [2] was over 10000 nM.

For `COc1cc(OC)c(-c2cnn(C(=O)N3CCCCC3Cc3ccccc3)n2)c(OC)c1` (stereo not drawn) [Compound 85, (2-benzylpiperidin-1-yl)(4-(2,4,6-trimethoxyphenyl)-1H-1,2,3-triazol-2-yl)methanone], the IC50 [1] was 2000 to 10000 nM and the IC50 [2] was over 10000 nM.

With `COc1ccc(-c2cn(C(=O)N3CCCCC3Cc3ccccc3)nn2)cc1` (stereo not drawn) [Compound 87, (2-benzylpiperidin-1-yl)(4-(4-methoxyphenyl)-1H-1,2,3-triazol-1-yl)methanone] the IC50 [1] was at most 400 nM and the IC50 [2] was at most 400 nM.

`N#Cc1ccc(-c2cn(C(=O)N3CCCCC3Cc3ccccc3)nn2)cc1` (stereo not drawn) [Compound 88, 4-(1-(2-benzylpiperidine-1-carbonyl)-1H-1,2,3-triazol-4-yl)benzonitrile] gave an IC50 [1] of at most 400 nM and an IC50 [2] of at most 400 nM.

`O=C(N1CCCCC1Cc1ccccc1)n1cc(-c2ccc([N+](=O)[O-])cc2)nn1` (stereo not drawn) [Compound 89, (2-benzylpiperidin-1-yl)(4-(4-nitrophenyl)-1H-1,2,3-triazol-1-yl)methanone] showed an IC50 [1] of at most 400 nM and an IC50 [2] of at most 400 nM.

`O=C(N1CCCCC1Cc1ccccc1)n1cc(-c2ccc(Br)nc2)nn1` (stereo not drawn) [Compound 90, (2-benzylpiperidin-1-yl)(4-(6-bromopyridin-3-yl)-1H-1,2,3-triazol-1-yl)methanone] was tested, and the IC50 [1] was at most 400 nM and the IC50 [2] was at most 400 nM.

Compound `CS(=O)(=O)OCc1ccc(-c2cn(C(=O)N3CCCCC3Cc3ccccc3)nn2)cc1` (stereo not drawn) [Compound 91, 4-(1-(2-benzylpiperidine-1-carbonyl)-1H-1,2,3-triazol-4-yl)benzyl methanesulfonate] has an IC50 [1] of 2000 to 10000 nM and an IC50 [2] of at most 400 nM.

Work on `CN(C)Cc1ccc(-c2cn(C(=O)N3CCCCC3Cc3ccccc3)nn2)cc1` (stereo not drawn) [Compound 92, (2-benzylpiperidin-1-yl)(4-(4-((dimethylamino)methyl)phenyl)-1H-1,2,3-triazol-1-yl)methanone] yielded an IC50 [1] of 2000 to 10000 nM and an IC50 [2] of 2000 to 10000 nM.

`O=C(N1CCCCC1Cc1ccccc1)n1cc(-c2ccc(CN3CCCC3)cc2)nn1` (stereo not drawn) [Compound 93, (2-benzylpiperidin-1-yl)(4-(4-(pyrrolidin-1-ylmethyl)phenyl)-1H-1,2,3-triazol-1-yl)methanone] gave an IC50 [1] of over 10000 nM and an IC50 [2] of 2000 to 10000 nM.

For `O=C(N1CCCCC1Cc1ccccc1)n1cc(-c2ccc(CN3CCOCC3)cc2)nn1` (stereo not drawn) [Compound 94, (2-benzylpiperidin-1-yl)(4-(4-(morpholinomethyl)phenyl)-1H-1,2,3-triazol-1-yl)methanone], the IC50 [1] was 400 to 2000 nM and the IC50 [2] was at most 400 nM.

For `COC(=O)N1CCN(C(=O)n2cc(-c3ccc(OC(F)(F)F)cc3)nn2)C(Cc2ccccc2)C1` (stereo not drawn) [Compound 95, methyl 3-benzyl-4-(4-(4-(trifluoromethoxy)phenyl)-1H-1,2,3-triazole-1-carbonyl)piperazine-1-carboxylate], the inhibition at 0.4 µM [1] was 25 to 50% and the inhibition at 0.4 µM [2] was at least 75%.

`CC(C)OC(=O)N1CCN(C(=O)n2cc(-c3ccc(OC(F)(F)F)cc3)nn2)C(Cc2ccccc2)C1` (stereo not drawn) [Compound 96, isopropyl 3-benzyl-4-(4-(4-(trifluoromethoxy)phenyl)-1H-1,2,3-triazole-1-carbonyl)piperazine-1-carboxylate] gave an inhibition at 0.4 µM [1] of 50 to 75% and an inhibition at 0.4 µM [2] of at least 75%.

`CC(C)OC(=O)N1CCN(C(=O)n2ncc(-c3ccc(OC(F)(F)F)cc3)n2)C(Cc2ccccc2)C1` (stereo not drawn) [Compound 97, isopropyl 3-benzyl-4-(4-(4-(trifluoromethoxy)phenyl)-2H-1,2,3-triazole-2-carbonyl)piperazine-1-carboxylate] showed an inhibition at 0.4 µM [1] of 0 to 25% and an inhibition at 0.4 µM [2] of 25 to 50%.

Work on `COC(=O)N1CCN(C(=O)n2ncc(-c3ccc(OC(F)(F)F)cc3)n2)C(Cc2ccccc2)C1` (stereo not drawn) [Compound 98, methyl 3-benzyl-4-(4-(4-(trifluoromethoxy)phenyl)-2H-1,2,3-triazole-2-carbonyl)piperazine-1-carboxylate] yielded an inhibition at 0.4 µM [1] of 0 to 25% and an inhibition at 0.4 µM [2] of 0 to 25%.

`CC(C)(C)OC(=O)N1CCN(C(=O)n2ncc(-c3ccc(OC(F)(F)F)cc3)n2)C(Cc2ccccc2)C1` (stereo not drawn) [Compound 99, tert-butyl 3-benzyl-4-(4-(4-(trifluoromethoxy)phenyl)-2H-1,2,3-triazole-2-carbonyl)piperazine-1-carboxylate] showed an inhibition at 0.4 µM [1] of 0 to 25% and an inhibition at 0.4 µM [2] of 0 to 25%.

With `CC(C)(C)OC(=O)N1CCN(C(=O)n2cc(-c3ccc(OC(F)(F)F)cc3)nn2)[C@H](Cc2ccccc2)C1` [Compound 100, tert-butyl (R)-3-benzyl-4-(4-(4-(trifluoromethoxy)phenyl)-1H-1,2,3-triazole-1-carbonyl)piperazine-1-carboxylate] the inhibition at 0.4 µM [1] was at least 75% and the inhibition at 0.4 µM [2] was at least 75%.

`CC(C)(C)OC(=O)N1CCN(C(=O)n2cc(-c3ccc(OC(F)(F)F)cc3)nn2)[C@@H](Cc2ccccc2)C1` [Compound 102, tert-butyl (S)-3-benzyl-4-(4-(4-(trifluoromethoxy)phenyl)-1H-1,2,3-triazole-1-carbonyl)piperazine-1-carboxylate] was tested, and the inhibition at 0.4 µM [1] was at least 75% and the inhibition at 0.4 µM [2] was at least 75%.

`O=C(N1CCCC[C@@H]1Cc1ccccc1)n1ncc(-c2ccc(OC(F)(F)F)cc2)n1` [Compound 104, (R)-(2-benzylpiperidin-1-yl)(4-(4-(trifluoromethoxy)phenyl)-2H-1,2,3-triazol-2-yl)methanone] showed an inhibition at 0.0032 µM [1] of 0 to 25% and an inhibition at 0.0032 µM [2] of 0 to 25%.

For `O=C(N1CCCC[C@H]1Cc1ccccc1)n1ncc(-c2ccc(OC(F)(F)F)cc2)n1` [Compound 105, (S)-(2-benzylpiperidin-1-yl)(4-(4-(trifluoromethoxy)phenyl)-2H-1,2,3-triazol-2-yl)methanone], the inhibition at 0.0032 µM [1] was 0 to 25% and the inhibition at 0.0032 µM [2] was 0 to 25%.

For `O=C(N1CCC=C[C@@H]1COCc1ccccc1)n1cc(-c2ccc(OC(F)(F)F)cc2)nn1` [Compound 106, (R)-(6-((benzyloxy)methyl)-3,6-dihydropyridin-1(2H)-yl)(4-(4-(trifluoromethoxy)phenyl)-1H-1,2,3-triazol-1-yl)methanone], the inhibition at 0.0032 µM [1] was 0 to 25% and the inhibition at 0.0032 µM [2] was 0 to 25%.

For `O=C(N1CCC=C[C@@H]1COCc1ccccc1)n1ncc(-c2ccc(OC(F)(F)F)cc2)n1` [Compound 107, (R)-(6-((benzyloxy)methyl)-3,6-dihydropyridin-1(2H)-yl)(4-(4-(trifluoromethoxy)phenyl)-2H-1,2,3-triazol-2-yl)methanone], the inhibition at 0.0032 µM [1] was 0 to 25% and the inhibition at 0.0032 µM [2] was 0 to 25%.
